Measured values taken from paper PMC5041153, “Presumed LRP1-targeting transport peptide delivers β-secretase inhibitor to neurons in vitro with limited efficiency” (Scientific Reports, 2016).
Where a SMILES comes first, the peptide text is derived from it. [ ]: non-standard residue; d: D form. Sta = CC(C)C[C@H](N)[C@@H](O)CC(=O)O

What was measured:
SH-SY5Y wild-type cells = conditions: 30 min pre-treatment, 1 h incubation, flow cytometry, n = 3; for decrease of uptake on treatment with EIPA: 60 μM EIPA, 3 μM peptide or 0.75 mg/mL 70 kDa dextran; for decrease of uptake in the presence of Dynasore: 100 μM Dynasore, serum-free medium, 3 μM peptide or 5 μg/mL transferrin
Method: Cell fluorescence distributions of cells treated with (a) 100 μM Dynasore or (b) 60 μM EIPA. […] Background cell fluorescence of only inhibitor-treated cells is shown (grey). Distributions shown are representative examples of three independent experiments. (c,d) Mean cell fluorescence intensity of the distributions shown in (a) or (b), respectively. The markers transferrin (Trf) and Dextran are shown for reference. (e) Frequency of cells in each of the two subpopulations (Negative or Positive) present upon treatment with ANG, as defined by the gates shown in the fluorescence distribution in (b). Numerical data are represented as mean ± SD (n = 3). *P ≤ 0.05 and **P ≤ 0.01, one-way ANOVA followed by Dunnet test.
For the pharmacological inhibition of endocytosis, we used Dynasore to inhibit clathrin-mediated endocytosis and 5-(N-Ethyl-N-isopropyl)amiloride (EIPA) to block macropinocytosis. […] To verify their inhibitory effects, we used fluorescently labeled human transferrin and 70 kDa dextran, respectively. […] Dynasore-treated cells were washed thrice with acidic wash buffer (0.2 M acetic acid and 0.2 M NaCl) and once with PBS prior to being harvested with trypsin for their analysis by flow cytometry. EIPA-treated cells were washed once with PBS, twice with acetate wash buffer (0.1 M sodium acetate and 0.05 M NaCl, pH 5.5) for 5 min each, and finally once more with PBS prior to being harvested with trypsin for their analysis by flow cytometry.

purified BACE1 enzyme = biological target: T1, purified BACE1 enzyme (Homo sapiens, UniProt P56817); assay: Activity test against purified BACE1 enzyme (cell-free, SensoLyte 520 β-secretase assay kit); assay type: biochemical; conditions: cell-free assay of purified BACE1; mean of n = 3, except ANG-PEG-SI n = 2; CI 95% printed alongside; read-out: IC50 (concentration at which 50% of relative cleavage was achieved)
T1 construct: purchased AnaSpec (Fremont, CA)
Method: Figure 1 Peptidic bioconjugates and their activity on purified BACE1 enzyme. (a) Scheme of the main bioconjugates used in this study with their corresponding sequences.
A range of concentrations of the different bioconjugates were tested in a cell-free assay of purified BACE1 enzyme using the SensoLyte 520 β–secretase assay kit from AnaSpec (Fremont, CA) following manufacturer’s guidelines.

BACE1 = biological target: T2, BACE1 (Homo sapiens, UniProt P56817); assay: Activity test on human neurons: Aβ38, Aβ40, Aβ42 in supernatant by ELISA; assay type: cell-based; conditions: 6 h, swAPP SH-SY5Y cells
T2 construct: SH-SY5Y cells overexpressing either Swedish-mutant APP or the isoforms APP695 or APP751 were seeded in 24-well plates; endogenous in cells; host or cells: SH-SY5Y cells overexpressing Swedish-mutant APP (also APP695 or APP751 lines)
Method: Figure 5 BACE1-inhibitory activity of the bioconjugates. […] The content of Aβ peptides was measured in the cells’ supernatant upon treatment and normalized setting the values of control DMSO-treated cells as 100% (Mean ± SD, n = 3–6). […] GAPDH was used as loading control. (b) Inhibitory activity of the ANG-SI bioconjugate at a range of concentrations (5–100 μM) after 6 h incubation with swAPP cells (Mean ± SD, n = 3–6). *P ≤ 0.05, **P ≤ 0.01, ***P ≤ 0.001, ****P ≤ 0.0001, one-way ANOVA followed by Dunnet test.
Supernatant from the tissue culture plates was then collected in low protein-binding tubes and analyzed by enzyme-linked immunosorbent assay with the Multi-Spot Assay System from Meso Scale Discovery (Rockville, MD) detecting human Aβ38, Aβ40 and Aβ42 peptides (#K15200E,) following manual’s instructions. The values obtained for the different conjugates varied in intensity (Aβ42 ~70,000 RU, Aβ40 ~400,000 RU and Aβ38 ~4,000 RU) and were normalized for the basal Aβ level detected in the supernatant of DMSO-treated cells, which was set as 100%.

SH-SY5Y cells = assay: Cellular internalization of TAMRA-labeled peptides by flow cytometry; assay type: cell-based, human; conditions: FBS-supplemented medium, n = 3
Method: Figure 2 Cellular internalization of peptidic bioconjugates in SH-SY5Y neurons. Mean cell fluorescence intensity was measured by flow cytometry after continuous incubation with the fluorescent TAMRA-labeled bioconjugates in FBS-supplemented medium for increasing time periods. Values were normalized against the fluorescence background of untreated cells and expressed as fold increase. (a) Internalization kinetics of ANG-SI, ANG or SI at 1 μM (mean ± SD, n = 3). (b) Energy-dependence of the internalization of ANG-SI at 37 °C and 4 °C (mean ± SD, n = 3). ***P ≤ 0.001 and ****P ≤ 0.0001, unpaired Student’s t test. (c) Confocal images of cells incubated with ANG-SI, ANG or SI (red) for 1 h. Cells’ perimeter and nuclei have been delineated for reference. Scale bar 10 μm. […]
To study the uptake of the ANG conjugates, cells were incubated with the different fluorescently labeled peptides at 1 μM in FBS-supplemented medium for increasing periods of time, after which they were washed according to previously established protocols[50] and harvested with trypsin for their analysis by flow cytometry. The mean fluorescence values obtained from the analysis were normalized against the background fluorescence of untreated cells and were presented as fold-increase of this intensity. […]

wild type SH-SY5Y cells = assay type: cell-based, human; conditions: 5 μM, continuous exposure over 72 h, RTCA xCELLigence
Method: Figure S7 – Activity of the TAT-SI and TRP-SI bioconjugates on swAPP-overexpressing SH-SY5Y cells. […]
μM in FBS-supplemented medium. Mean ± SD (n=3). **P<0.01 and ****P<0.0001, one-way ANOVA followed […]
Figure S8 – Cytotoxicity of the peptides. Cell growth was monitored over 72 h using wild type SH-SY5Y cells during continuous exposure to the peptides at 5 μM using a Real-Time Cell Analysis (RTCA) xCELLigence system from Roche (Rotkreuz, Switzerland). Briefly, cells were seeded on the E-plates (10,000 cells/well) and after one day the medium was replaced by fresh medium containing the corresponding peptide and the cells were grown for 72 h. Cell growth was monitored with the RTCA system over 72 h during continuous exposure to the peptides at 5 μM. […]

T2 sequence (P56817 46-501): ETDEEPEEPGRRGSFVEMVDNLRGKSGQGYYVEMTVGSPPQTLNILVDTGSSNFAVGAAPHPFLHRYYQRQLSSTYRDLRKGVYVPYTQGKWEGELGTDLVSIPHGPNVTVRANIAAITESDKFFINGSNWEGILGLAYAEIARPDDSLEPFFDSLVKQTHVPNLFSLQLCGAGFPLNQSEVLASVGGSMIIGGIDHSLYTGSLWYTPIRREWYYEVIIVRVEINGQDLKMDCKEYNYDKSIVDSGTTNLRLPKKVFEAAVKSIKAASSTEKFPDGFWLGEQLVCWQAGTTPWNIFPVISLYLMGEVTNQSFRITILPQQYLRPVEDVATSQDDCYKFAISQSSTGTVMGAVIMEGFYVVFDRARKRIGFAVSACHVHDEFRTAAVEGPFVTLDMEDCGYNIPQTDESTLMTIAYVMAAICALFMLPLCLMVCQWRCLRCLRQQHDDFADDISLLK
T1 sequence (P56817 46-501): as above

Compound: dextran [reference compound]
- decrease of uptake on treatment with EIPA (SH-SY5Y wild-type cells): 50%

Compound: EVN-statine-VAEF-PEG-TFFYGGSRGKRNNFKTEEY [ANG-PEG-SI, ANG and SI joined by an inert poly(ethylene glycol) linker]
- IC50 (purified BACE1 enzyme): 87.1 nM
- effect on Aβ peptide levels (cellular activity) (BACE1; 5 μM, FBS-supplemented medium, normalized to DMSO-treated cells): did not show cellular activity

Compound: EVN-statine-VAEFTFFYGGSRGKRNNFKTEEY (N-terminal EVN-statine) [ANG-SI, SI coupled to the transport peptide ANG]
- internalization into cells (mean cell fluorescence intensity) (SH-SY5Y cells; TAMRA-labeled peptide, 1 μM, up to 5 h continuous incubation, 37 °C): taken up by cells
- internalization at 4 °C instead of 37 °C (energy dependence) (SH-SY5Y cells; TAMRA-labeled, 1 h pre-incubation at 4 °C): significantly decreased
- decrease of uptake on treatment with EIPA (SH-SY5Y wild-type cells): 50%
- decrease of uptake in the presence of Dynasore (SH-SY5Y wild-type cells): 20%
- decrease in the enzymatic activity of BACE1 (BACE1; concentrations five times higher than 5 μM, n = 3–6): ~ 25%
- decrease in the enzymatic activity of BACE1 (BACE1; concentrations twenty times higher than 5 μM, n = 3–6): ~ 60%

Compound: C[C@@]1(c2cc(-c3cncnc3)c(F)cc2F)CCSC(N)=N1 [LY2811376, reference compound]
- decrease of the levels of Aβ peptides 38, 40 and 42 in supernatant (BACE1; 5 μM, FBS-supplemented medium, normalized to DMSO-treated cells = 100%, n = 3–6): > 90%

Compound: CC[C@H](C)[C@H](NC(=O)[C@H](CCCCN)NC(=O)[C@H](CCCCN)NC(=O)[C@H](C)NC(=O)[C@H](CC(C)C)NC(=O)[C@H](C)NC(=O)[C@H](C)NC(=O)[C@H](CC(C)C)NC(=O)[C@H](C)NC(=O)[C@H](CCCCN)NC(=O)[C@H](CC(C)C)NC(=O)[C@H](CC(N)=O)NC(=O)[C@@H](NC(=O)[C@H](CCCCN)NC(=O)CNC(=O)[C@H](CC(C)C)NC(=O)[C@H](CC(C)C)NC(=O)[C@H](Cc1ccc(O)cc1)NC(=O)CNC(=O)[C@H](C)NC(=O)[C@H](CO)NC(=O)[C@H](CC(N)=O)NC(=O)[C@H](CC(C)C)NC(=O)[C@@H](NC(=O)[C@H](Cc1c[nH]c2ccccc12)NC(=O)CNC(=O)[C@H](Cc1ccccc1)NC(=O)[C@H](CCC(=O)O)NC(=O)[C@H](C)NC(=O)[C@@H](NC(=O)C[C@H](O)[C@H](CC(C)C)NC(=O)[C@H](CC(N)=O)NC(=O)[C@@H](NC(=O)[C@@H](N)CCC(=O)O)C(C)C)C(C)C)[C@@H](C)O)[C@@H](C)CC)C(=O)N[C@@H](CC(C)C)C(=O)O [TRP-SI] (H-EVN[Sta]VAEFGWTLNSAGYLLGKINLKALAALAKKIL-OH)
- cytotoxicity (cell growth) (wild type SH-SY5Y cells): cytotoxic effect

Compound: transferrin: fluorescently labeled human transferrin, clathrin-mediated endocytosis marker [reference compound]
- decrease of uptake in the presence of Dynasore (SH-SY5Y wild-type cells): ~ 35%
